In patent US11697648B2, “Fused pyrimidine pyridinone compounds as JAK inhibitors” (THERAVANCE BIOPHARMA R&D IP, LLC, priority 2019, dated 2023):

What was measured:
JAK1 = JAK1 (Homo sapiens (Human), UniProt P23458); assay: Biochemical JAK1 kinase assay (LanthaScreen)
In short: (§1)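 GST-JAK + GFP-STAT1 peptide, HEPES pH 7.5/MgCl2/EGTA/Brij-35 buffer; cpd preincubation 1 h RT; ATP start, 1 h RT; stop with 10 mM EDTA + 2 nM Tb-anti-pSTAT1; TR-FRET 520/495. 4-parameter IC50 → pKi (Cheng-Prusoff).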

JAK3 = JAK3 (Homo sapiens (Human), UniProt P52333); assay: Biochemical JAK3 kinase assay (LanthaScreen); conditions: for JAK3 (pKi)-JAK1 (pKi): selectivity JAK3 over JAK1, difference of pKi
In short: as §1

Tyk2 = Tyk2 (Homo sapiens (Human), UniProt P29597); assay: Biochemical Tyk2 kinase assay (LanthaScreen)
In short: as §1

[1] = test system: IL-2 stimulated STAT5 phosphorylation in Tall-1 human T cell line (JAK3); assay: Cellular JAK3 potency assay: inhibition of IL-2 stimulated pSTAT5 in Tall-1 T cells; format: cell-based; conditions: IL-2 stimulated pSTAT5, Tall-1 T cells
In short: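 Tall-1 cells, 45,000 per well, preincubated 1 hour with compound at 37 °C, then stimulated 30 minutes with IL-2 at 300 ng/ml final. pSTAT5 (Tyr694/699) in lysates quantified by AlphaLISA SureFire Ultra. pIC50 derived from inhibition curves, given as mean with SD.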

JAK2 = JAK2 (Homo sapiens (Human), UniProt O60674); assay: Biochemical JAK2 kinase assay (LanthaScreen)
In short: as §1

Caco-2 cell monolayers = assay: Caco-2 permeation assay; format: in vitro ADME; conditions: 5 μM, A-B direction, with Verapamil (25 μM)
In short: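 Compounds tested at 5 μM in duplicate across Caco-2 monolayers, apical-to-basolateral, with 25 μM verapamil to block P-gp, at 37° C., 5% CO2. Apical and basal samples taken at 0 and 120 min, analysed by LC-MS/MS; Papp (cm/sec) calculated as dQ/(dt×Area×concentration).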

JAK3, sequence (P52333 whole entry): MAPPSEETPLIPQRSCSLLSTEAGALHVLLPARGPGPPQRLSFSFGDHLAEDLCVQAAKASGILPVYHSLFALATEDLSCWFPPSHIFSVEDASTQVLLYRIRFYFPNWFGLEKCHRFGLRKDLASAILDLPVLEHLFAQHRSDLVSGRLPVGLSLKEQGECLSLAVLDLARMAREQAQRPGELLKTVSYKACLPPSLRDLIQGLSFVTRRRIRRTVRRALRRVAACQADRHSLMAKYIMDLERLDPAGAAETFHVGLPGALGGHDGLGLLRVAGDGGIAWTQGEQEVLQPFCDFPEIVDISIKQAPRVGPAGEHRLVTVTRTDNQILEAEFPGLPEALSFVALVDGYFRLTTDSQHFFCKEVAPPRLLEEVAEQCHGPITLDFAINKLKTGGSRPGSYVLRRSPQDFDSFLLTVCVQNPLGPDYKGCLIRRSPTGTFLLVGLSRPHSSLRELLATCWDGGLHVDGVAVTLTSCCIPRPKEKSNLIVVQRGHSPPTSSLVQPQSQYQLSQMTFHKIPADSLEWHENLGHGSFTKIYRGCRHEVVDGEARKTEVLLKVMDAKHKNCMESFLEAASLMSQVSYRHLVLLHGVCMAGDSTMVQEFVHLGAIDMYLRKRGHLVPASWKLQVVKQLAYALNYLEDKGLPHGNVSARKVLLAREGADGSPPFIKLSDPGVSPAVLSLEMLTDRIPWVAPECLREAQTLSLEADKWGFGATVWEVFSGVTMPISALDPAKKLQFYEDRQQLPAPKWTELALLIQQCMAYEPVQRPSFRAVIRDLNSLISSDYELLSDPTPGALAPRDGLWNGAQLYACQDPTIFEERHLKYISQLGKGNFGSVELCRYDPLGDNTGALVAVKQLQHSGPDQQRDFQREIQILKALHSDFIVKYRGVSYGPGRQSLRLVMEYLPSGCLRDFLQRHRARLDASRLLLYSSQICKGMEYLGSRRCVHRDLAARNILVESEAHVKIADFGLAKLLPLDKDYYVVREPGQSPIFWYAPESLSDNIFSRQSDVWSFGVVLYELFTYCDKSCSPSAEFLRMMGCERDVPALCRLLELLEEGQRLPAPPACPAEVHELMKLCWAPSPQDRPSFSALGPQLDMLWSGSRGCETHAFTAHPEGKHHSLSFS
JAK1, sequence (P23458 whole entry): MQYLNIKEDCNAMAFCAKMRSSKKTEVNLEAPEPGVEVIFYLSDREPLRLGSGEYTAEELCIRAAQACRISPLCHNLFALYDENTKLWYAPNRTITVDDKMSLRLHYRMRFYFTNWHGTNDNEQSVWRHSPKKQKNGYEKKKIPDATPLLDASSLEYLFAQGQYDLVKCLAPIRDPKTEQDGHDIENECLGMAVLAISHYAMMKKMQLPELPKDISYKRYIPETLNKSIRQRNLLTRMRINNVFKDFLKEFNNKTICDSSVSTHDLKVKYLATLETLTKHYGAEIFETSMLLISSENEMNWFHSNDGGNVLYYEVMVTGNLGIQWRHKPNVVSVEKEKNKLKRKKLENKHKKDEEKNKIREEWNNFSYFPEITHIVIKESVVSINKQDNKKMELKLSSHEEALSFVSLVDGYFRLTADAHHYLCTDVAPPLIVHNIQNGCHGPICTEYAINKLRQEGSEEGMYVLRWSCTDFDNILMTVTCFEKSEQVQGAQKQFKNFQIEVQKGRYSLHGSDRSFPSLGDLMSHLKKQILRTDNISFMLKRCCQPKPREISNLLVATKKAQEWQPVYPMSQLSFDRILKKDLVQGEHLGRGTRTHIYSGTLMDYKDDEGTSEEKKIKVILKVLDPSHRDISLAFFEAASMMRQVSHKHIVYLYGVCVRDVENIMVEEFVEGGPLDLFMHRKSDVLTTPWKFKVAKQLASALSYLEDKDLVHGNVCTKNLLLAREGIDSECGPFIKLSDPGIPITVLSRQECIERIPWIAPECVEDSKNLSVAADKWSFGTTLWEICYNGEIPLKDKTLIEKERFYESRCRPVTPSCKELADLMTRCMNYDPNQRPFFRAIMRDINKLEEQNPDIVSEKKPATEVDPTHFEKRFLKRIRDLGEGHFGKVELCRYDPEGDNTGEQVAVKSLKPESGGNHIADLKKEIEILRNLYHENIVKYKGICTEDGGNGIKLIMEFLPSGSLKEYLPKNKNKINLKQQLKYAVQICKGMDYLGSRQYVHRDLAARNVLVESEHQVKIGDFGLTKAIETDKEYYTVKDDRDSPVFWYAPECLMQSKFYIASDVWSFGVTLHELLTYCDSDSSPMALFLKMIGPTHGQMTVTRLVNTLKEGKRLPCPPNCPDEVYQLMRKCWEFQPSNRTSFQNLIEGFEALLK
JAK2, sequence (O60674 whole entry): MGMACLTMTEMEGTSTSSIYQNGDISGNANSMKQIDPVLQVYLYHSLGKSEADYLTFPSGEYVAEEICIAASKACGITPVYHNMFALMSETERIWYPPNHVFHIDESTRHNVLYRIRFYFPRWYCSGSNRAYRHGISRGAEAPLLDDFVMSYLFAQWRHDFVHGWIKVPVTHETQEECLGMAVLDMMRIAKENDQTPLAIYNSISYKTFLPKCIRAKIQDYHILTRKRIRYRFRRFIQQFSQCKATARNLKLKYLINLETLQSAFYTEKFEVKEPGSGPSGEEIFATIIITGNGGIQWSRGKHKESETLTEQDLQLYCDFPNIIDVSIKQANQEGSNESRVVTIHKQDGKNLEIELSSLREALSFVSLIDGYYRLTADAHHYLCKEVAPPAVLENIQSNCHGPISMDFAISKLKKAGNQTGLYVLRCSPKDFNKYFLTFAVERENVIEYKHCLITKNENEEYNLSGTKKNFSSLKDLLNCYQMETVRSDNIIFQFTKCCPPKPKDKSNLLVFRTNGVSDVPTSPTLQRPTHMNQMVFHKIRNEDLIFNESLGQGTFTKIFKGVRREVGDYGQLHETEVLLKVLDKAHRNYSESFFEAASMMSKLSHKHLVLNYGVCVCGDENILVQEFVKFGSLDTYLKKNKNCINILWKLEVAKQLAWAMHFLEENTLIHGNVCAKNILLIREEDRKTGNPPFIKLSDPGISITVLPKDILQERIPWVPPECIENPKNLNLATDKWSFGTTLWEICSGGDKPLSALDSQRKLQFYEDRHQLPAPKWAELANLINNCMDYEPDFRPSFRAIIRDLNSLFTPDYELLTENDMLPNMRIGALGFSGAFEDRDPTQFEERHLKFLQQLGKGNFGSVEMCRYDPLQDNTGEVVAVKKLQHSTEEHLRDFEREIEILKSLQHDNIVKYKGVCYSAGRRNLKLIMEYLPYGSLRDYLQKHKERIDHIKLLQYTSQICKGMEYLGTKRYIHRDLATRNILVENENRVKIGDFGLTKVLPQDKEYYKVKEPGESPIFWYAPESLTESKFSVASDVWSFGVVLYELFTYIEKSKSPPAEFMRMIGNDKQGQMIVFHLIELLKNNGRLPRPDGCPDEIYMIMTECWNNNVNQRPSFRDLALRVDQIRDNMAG
Tyk2, sequence (P29597 whole entry): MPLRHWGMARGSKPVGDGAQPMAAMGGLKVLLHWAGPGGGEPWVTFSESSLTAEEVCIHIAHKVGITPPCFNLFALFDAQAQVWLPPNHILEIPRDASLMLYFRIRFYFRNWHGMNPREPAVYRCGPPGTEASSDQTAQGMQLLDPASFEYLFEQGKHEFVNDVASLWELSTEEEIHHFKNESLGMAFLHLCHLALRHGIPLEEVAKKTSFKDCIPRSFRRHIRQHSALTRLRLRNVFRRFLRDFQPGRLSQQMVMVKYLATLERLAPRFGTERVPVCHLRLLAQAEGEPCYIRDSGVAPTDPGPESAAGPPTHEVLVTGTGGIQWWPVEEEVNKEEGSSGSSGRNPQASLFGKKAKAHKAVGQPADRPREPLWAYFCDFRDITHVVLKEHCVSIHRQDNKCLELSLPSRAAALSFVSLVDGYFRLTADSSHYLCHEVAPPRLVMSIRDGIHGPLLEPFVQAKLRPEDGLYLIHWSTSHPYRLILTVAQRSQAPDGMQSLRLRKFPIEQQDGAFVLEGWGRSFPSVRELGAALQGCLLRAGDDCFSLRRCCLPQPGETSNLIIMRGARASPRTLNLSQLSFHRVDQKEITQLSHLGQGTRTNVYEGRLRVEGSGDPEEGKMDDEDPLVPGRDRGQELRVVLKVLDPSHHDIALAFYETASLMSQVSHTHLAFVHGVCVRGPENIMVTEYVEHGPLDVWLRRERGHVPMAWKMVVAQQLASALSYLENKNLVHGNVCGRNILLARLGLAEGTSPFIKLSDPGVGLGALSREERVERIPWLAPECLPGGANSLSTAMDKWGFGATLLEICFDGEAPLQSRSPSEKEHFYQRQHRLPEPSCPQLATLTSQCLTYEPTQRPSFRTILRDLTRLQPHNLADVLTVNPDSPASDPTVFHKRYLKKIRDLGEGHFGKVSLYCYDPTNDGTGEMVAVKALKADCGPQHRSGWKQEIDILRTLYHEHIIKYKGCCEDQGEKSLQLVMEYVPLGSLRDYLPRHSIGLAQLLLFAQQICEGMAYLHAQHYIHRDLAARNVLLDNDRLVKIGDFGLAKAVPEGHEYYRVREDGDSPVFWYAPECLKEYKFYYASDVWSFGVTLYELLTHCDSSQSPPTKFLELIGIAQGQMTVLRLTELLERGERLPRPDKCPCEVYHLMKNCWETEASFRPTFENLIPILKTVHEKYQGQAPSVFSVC

Row | Compound | JAK 1 (pKi) (JAK1) | JAK 3 (pKi) (JAK3) | JAK3 (pKi)-JAK1 (pKi) (JAK3) | Tyk 2 (pKi) (Tyk2) | Tall-1 (pIC50) [1] | JAK 2 (pKi) (JAK2) | Caco Kp (Caco-2 cell monolayers)
1 | C=CC(=O)N1CCN(CCn2c(=O)ccc3cnc(Nc4ccc(N5CCN(C(=O)OC)CC5)cc4)nc32)[C@@H](C)C1 [Example 172] | E (E represents a pKi value of 7 or below (Ki of 100 nM or above)) | B (B represents pKi value between 9 and 10 (Ki between 1 nM and 0.1 nM)) | A (A represents a value of 3 or above) | E (E represents a pKi value of 7 or below (Ki of 100 nM or above)) | A (A represents a pIC50 value≥7.5 (IC50≤32 nM)) | E (E represents a pKi value of 7 or below (Ki of 100 nM or above)) | C (C represents a value between 10×10^−6 and 30×10^−6 cm/sec)
2 | C=CC(=O)N1CC(CCn2c(=O)ccc3cnc(Nc4ccc(N5C[C@@H](C)N(C(C)=O)[C@@H](C)C5)cc4)nc32)C1 [Example 178] | E (E represents a pKi value of 7 or below (Ki of 100 nM or above)) | A (A represents a pKi value≥10 (Ki≤0.1 nM)) | A (A represents a value of 3 or above) | E (E represents a pKi value of 7 or below (Ki of 100 nM or above)) | B (B represents a pC50 value between 6.7 (included) and 7.5 (IC50 between 200 nM and 32 nM)) | E (E represents a pKi value of 7 or below (Ki of 100 nM or above)) | C (C represents a value between 10×10^−6 and 30×10^−6 cm/sec)
3 | C=CC(=O)N1CC(CCn2c(=O)ccc3cnc(Nc4ccc(N5CCN(C(C)=O)C(C)(C)C5)cc4)nc32)C1 [Example 179] | E (E represents a pKi value of 7 or below (Ki of 100 nM or above)) | A (A represents a pKi value≥10 (Ki≤0.1 nM)) | A (A represents a value of 3 or above) | E (E represents a pKi value of 7 or below (Ki of 100 nM or above)) | B (B represents a pC50 value between 6.7 (included) and 7.5 (IC50 between 200 nM and 32 nM)) | E (E represents a pKi value of 7 or below (Ki of 100 nM or above)) | C (C represents a value between 10×10^−6 and 30×10^−6 cm/sec)
4 | C=CC(=O)N1CC(CC)(CCn2c(=O)ccc3cnc(Nc4ccc(N5CCN(C(C)=O)CC5)cc4)nc32)C1 [Example 180] | E (E represents a pKi value of 7 or below (Ki of 100 nM or above)) | B (B represents pKi value between 9 and 10 (Ki between 1 nM and 0.1 nM)) | A (A represents a value of 3 or above) | E (E represents a pKi value of 7 or below (Ki of 100 nM or above)) | B (B represents a pC50 value between 6.7 (included) and 7.5 (IC50 between 200 nM and 32 nM)) | E (E represents a pKi value of 7 or below (Ki of 100 nM or above)) | A (A represents a value below 5×10^−6 cm/sec)
5 | C=CC(=O)N1CCN(CCn2c(=O)ccc3cnc(Nc4ccc(N5CCN(C(C)=O)CC5)cc4)nc32)[C@@H](CC)C1 [Example 185] | E (E represents a pKi value of 7 or below (Ki of 100 nM or above)) | A (A represents a pKi value≥10 (Ki≤0.1 nM)) | A (A represents a value of 3 or above) | E (E represents a pKi value of 7 or below (Ki of 100 nM or above)) | B (B represents a pC50 value between 6.7 (included) and 7.5 (IC50 between 200 nM and 32 nM)) | E (E represents a pKi value of 7 or below (Ki of 100 nM or above)) | B (B represents a value between 5×10^−6 and 10×10^−6 cm/sec)
6 | C=CC(=O)N1CCN(CCn2c(=O)ccc3cnc(Nc4ccc(N5CCN(C(=O)COC)CC5)cc4)nc32)[C@@H](CC)C1 [Example 186] | E (E represents a pKi value of 7 or below (Ki of 100 nM or above)) | B (B represents pKi value between 9 and 10 (Ki between 1 nM and 0.1 nM)) | A (A represents a value of 3 or above) | E (E represents a pKi value of 7 or below (Ki of 100 nM or above)) | B (B represents a pC50 value between 6.7 (included) and 7.5 (IC50 between 200 nM and 32 nM)) | E (E represents a pKi value of 7 or below (Ki of 100 nM or above)) | A (A represents a value below 5×10^−6 cm/sec)
7 | C=CC(=O)N1CCN(CCn2c(=O)ccc3cnc(Nc4ccc(N5CCN(C(=O)N(C)C)CC5)cc4)nc32)[C@@H](CC)C1 [Example 187] | E (E represents a pKi value of 7 or below (Ki of 100 nM or above)) | B (B represents pKi value between 9 and 10 (Ki between 1 nM and 0.1 nM)) | A (A represents a value of 3 or above) | E (E represents a pKi value of 7 or below (Ki of 100 nM or above)) | B (B represents a pC50 value between 6.7 (included) and 7.5 (IC50 between 200 nM and 32 nM)) | E (E represents a pKi value of 7 or below (Ki of 100 nM or above)) | C (C represents a value between 10×10^−6 and 30×10^−6 cm/sec)
8 | C=CC(=O)N1CCN(CCn2c(=O)ccc3cnc(Nc4ccc(N5CCN(C(=O)CSC)CC5)cc4)nc32)[C@@H](CC)C1 [Example 188] | E (E represents a pKi value of 7 or below (Ki of 100 nM or above)) | B (B represents pKi value between 9 and 10 (Ki between 1 nM and 0.1 nM)) | A (A represents a value of 3 or above) | E (E represents a pKi value of 7 or below (Ki of 100 nM or above)) | B (B represents a pC50 value between 6.7 (included) and 7.5 (IC50 between 200 nM and 32 nM)) | E (E represents a pKi value of 7 or below (Ki of 100 nM or above)) | C (C represents a value between 10×10^−6 and 30×10^−6 cm/sec)
9 | C=CC(=O)N1CCN(CCn2c(=O)ccc3cnc(Nc4ccc(N5CCN(S(C)(=O)=O)CC5)cc4)nc32)[C@@H](CC)C1 [Example 189] | E (E represents a pKi value of 7 or below (Ki of 100 nM or above)) | A (A represents a pKi value≥10 (Ki≤0.1 nM)) | A (A represents a value of 3 or above) | E (E represents a pKi value of 7 or below (Ki of 100 nM or above)) | B (B represents a pC50 value between 6.7 (included) and 7.5 (IC50 between 200 nM and 32 nM)) | E (E represents a pKi value of 7 or below (Ki of 100 nM or above)) | B (B represents a value between 5×10^−6 and 10×10^−6 cm/sec)
10 | C=CC(=O)N1CCN(CCn2c(=O)ccc3cnc(Nc4ccc(N5CCN(C(=O)OC)CC5)cc4)nc32)[C@@H](CC)C1 [Example 190] | E (E represents a pKi value of 7 or below (Ki of 100 nM or above)) | A (A represents a pKi value≥10 (Ki≤0.1 nM)) | A (A represents a value of 3 or above) | E (E represents a pKi value of 7 or below (Ki of 100 nM or above)) | B (B represents a pC50 value between 6.7 (included) and 7.5 (IC50 between 200 nM and 32 nM)) | E (E represents a pKi value of 7 or below (Ki of 100 nM or above)) | C (C represents a value between 10×10^−6 and 30×10^−6 cm/sec)
11 | C=CC(=O)N1CCN(CCn2c(=O)ccc3cnc(Nc4ccc(N5CCN(S(=O)(=O)CCOC)CC5)cc4)nc32)[C@@H](CC)C1 [Example 191] | E (E represents a pKi value of 7 or below (Ki of 100 nM or above)) | A (A represents a pKi value≥10 (Ki≤0.1 nM)) | A (A represents a value of 3 or above) | E (E represents a pKi value of 7 or below (Ki of 100 nM or above)) | B (B represents a pC50 value between 6.7 (included) and 7.5 (IC50 between 200 nM and 32 nM)) | E (E represents a pKi value of 7 or below (Ki of 100 nM or above)) | B (B represents a value between 5×10^−6 and 10×10^−6 cm/sec)
